According to patent US11382892B2, “Method for administration” (Hoffmann-La Roche Inc., priority 2012, dated 2022):

Tested on: human acute myeloid leukemia xenograft model MOLM-13
Assay: Survival / increase in life span in MOLM-13 xenograft
Assay type: in vivo, mice
Details: 80 mg/kg qd × 5 po
Procedure: For survival assessment, the percent of increased life space (ILS) was calculated as: 100×[(median survival day of treated group−median survival day of control group)/median survival day of control group]. Median survival was determined utilizing Kaplan Meier survival analysis. Survival in treated groups was statistically compared with the vehicle group and survival comparisons were done between groups using the log-rank test (Graph Pad Prism, La Jolla, Calif., USA). Differences between groups were considered significant when the probability value (p) was ≤0:05.
All dose levels are reported as the actual dosage of Compound A rather than including drug plus polymer.
Female SCID:beige mice (10/group), obtained from Charles River Laboratories (Wilmington, Del.) were utilized when they were approximately 8-10 weeks of age and weighed 21-23 g. The health of the mice was assessed daily by gross observation and analyses of blood samples taken from sentinel animals housed on shared shelf racks. All animals were allowed to acclimate and recover from any shipping-related stress for a minimum of 72 hours prior to experimental use. […]
Treatment duration was initiated on day 3 and was for 2 weeks. Animal body weights were measured three times per week and animals were monitored for clinical signs daily.

Which results are given for `COc1cc(C(=O)O)ccc1NC(=O)[C@@H]1N[C@@H](CC(C)(C)C)[C@](C#N)(c2ccc(Cl)cc2F)[C@H]1c1cccc(Cl)c1F` [Compound A, 4-{[(2R,3S,4R,5S)-4-(4-Chloro-2-fluoro-phenyl)-3-(3-chloro-2-fluoro-phenyl)-4-cyano-5-(2,2-dimethyl-propyl)-pyrrolidine-2-carbonyl]-amino}-3-methoxy-benzoic acid]?
% ILS: 37%; 50% Treatment Days (median survival) (vehicle 21 days): 28 days
